The target in assay [1] is T1, Hepatitis A virus cellular receptor 2 (Homo sapiens, UniProt Q8TDQ0).
T1 sequence (Q8TDQ0 whole entry): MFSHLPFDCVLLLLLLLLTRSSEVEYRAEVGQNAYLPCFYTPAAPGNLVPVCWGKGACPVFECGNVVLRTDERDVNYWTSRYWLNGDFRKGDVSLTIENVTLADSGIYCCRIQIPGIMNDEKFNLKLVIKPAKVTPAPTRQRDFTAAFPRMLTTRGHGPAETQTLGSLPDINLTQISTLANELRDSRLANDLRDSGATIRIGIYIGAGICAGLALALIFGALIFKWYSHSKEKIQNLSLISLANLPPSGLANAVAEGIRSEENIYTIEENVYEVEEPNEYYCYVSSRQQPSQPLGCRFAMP
Nature of the assay: Binding affinity to His-tagged recombinant human TIM3 expressed in HEK293 cells assessed as dissociation constant by sensor chip immobilization based SPR analysis.

Assay [2] has as its target Hepatitis A virus cellular receptor 2 (Homo sapiens) (UniProt Q8TDQ0). The assay is described as follows: Inhibition of recombinant TIM3 (unknown origin) cocultured in PBMC cells assessed as IFN-gamma release at 5 uM by ELISA method. It is filed as cell-based. Background: ELISA stands for enzyme-linked immunosorbent assay.
The subject of a further assay is Kasumi 1. Nature of the assay: Inhibition of cell proliferation of human Kasumi 1 cocultured with 5 uM compound treated human PBMC cells by H3 thymidine uptake. Format: functional, cell-based.
The target in assay [3] is T1, Hepatitis A virus cellular receptor 2. The assay is described as follows: Binding affinity to His-tagged recombinant human TIM3 expressed in HEK293 cells assessed as dissociation constant by MST assay. Format: cell-based.
For assay [4], the target named is Hepatitis A virus cellular receptor 2 (Homo sapiens) (UniProt Q8TDQ0). Nature of the assay: Inhibition of AF647-labeled TIM3 (unknown origin) binding to ptdSer in staurosporine-induced human Jurkat cells at 200 to 1000 nM preincubated with TIM3 followed by cell culture addition by flow cytometry. The note with it: dose 200-1000 nM. Format: cell-based. A general note: Flow cytometry measures light scatter and fluorescence of single cells or particles in a stream.

The species named for a further assay is Homo sapiens. Nature of the assay: Inhibition of polyhis-tagged CEACAM1 binding to recombinant human TIM3 at 200 to 1000 nM preincubated with TIM3 for 1 hr followed by CEACAM1 addition measured after 1 hr by ELISA method. The conditions noted are these: dose 200-1000 nM, time 2.0 hrs.
Another assay has as its system THP-1. Nature of the assay: Inhibition of cell proliferation of human THP-1 NucLight Red cells at 5 uM by incucyte based immune cell killing assay. It is filed as functional.
Assay [5] has as its target Hepatitis A virus cellular receptor 2 (Homo sapiens) (UniProt Q8TDQ0). Nature of the assay: Inhibition of recombinant human Gal-9 binding to biotinylated recombinant human TIM3 at 1 uM by competitive ELISA method.

Activity calls are given as the source filed them. No cut-off for these calls is given here.

By Kd is commonly meant the constant that tells how readily two partners part at equilibrium. For the compound `COc1ccc(-c2noc(-c3cccc(OCC(=O)Nc4cccc(C)c4)c3)n2)cc1`, the Kd in assay [1] stood at 3.12 µM. The same measure, in the same setting: then `COc1ccc(-c2noc(-c3cccc(NC(=O)COc4cccc(C)c4)c3)n2)cc1`, with 6.04 µM; and `COc1ccc(-c2noc(-c3cccc(OCC(=O)Nc4ccc(F)cc4)c3)n2)cc1`, with 20.4 µM.

In the case of `COc1ccc(-c2noc(-c3ccccc3OCC(=O)Nc3cc(C)cc(C)c3)n2)cc1`, the Kd in assay [1] was determined as 28.9 µM. For `COc1ccc(-c2noc(-c3cccc(OCC(=O)Nc4ccccc4F)c3)n2)cc1`, the Kd in assay [1] was determined as 27.6 µM. For `CCOc1ccc(NC(=O)COc2cccc(-c3nc(-c4ccc(OC)cc4)no3)c2)cc1`, the Kd in assay [1] was determined as 1.35 µM. Take `Cc1ccc(-c2noc(-c3cccc(NC(=O)COc4ccccc4)c3)n2)cc1`: the Kd in assay [1] is 42.4 µM.

Consider `COc1ccc(-c2noc(-c3cccc(OCC(=O)Nc4cc(OC)ccc4OC)c3)n2)cc1`, for which, in assay [1], the Kd came to 0.98 µM. Consider `COc1ccc(-c2noc(-c3cccc(OCC(=O)Nc4ccncc4)c3)n2)cc1`, for which the Kd in assay [1] amounted to 2.01 µM.

With `COc1ccc(-c2noc(-c3cccc(OCC(=O)Nc4ccc(C)nc4)c3)n2)cc1`, the Kd in assay [1] stood at 2.47 µM. Regarding `COc1ccc(-c2noc(-c3cccc(OCC(=O)NCc4ccco4)c3)n2)cc1`, the Kd in assay [1] amounted to 11.6 µM. Turning to `COc1ccc(-c2noc(-c3cccc(OCC(=O)Nc4ccc(OC)cc4OC)c3)n2)cc1`, the inhibition entry (in assay [2]; with Kasumi 1; in assay [4]; in the assay listed under Homo sapiens; in the assay with THP-1; in assay [5]) was “Active” in each case. The results for the Kd in assay [3] and in assay [1] were 0.00058 µM and 0.61 µM, respectively.

For `COc1cc(-c2cc(OC)c3c(C)oc(C)c3c(=O)c2)ccc1OC(=O)c1ccc(C)cc1`, the Kd in assay [1] stood at 28.9 µM. Turning to `Cc1cccc(-c2noc(-c3cccc(NC(=O)COc4ccccc4)c3)n2)c1`, the Kd in assay [1] is 46.3 µM. The same measure, in the same setting: then `COc1ccc(-c2noc(-c3cccc(OCC(=O)Nc4cccc(OC)c4)c3)n2)cc1`, with 1.63 µM; and `COc1ccc(-c2noc(-c3cccc(NC(=O)COc4ccc(C)cc4)c3)n2)cc1`, with 9.45 µM; and `Cc1ccc(OCC(=O)Nc2cccc(-c3nc(-c4ccccc4)no3)c2)cc1`, with 53.1 µM. As to `COc1ccc(-c2noc(-c3cccc(NC(=O)COc4ccccc4C)c3)n2)cc1`, the Kd in assay [1] was 8.32 µM. In the case of `COc1ccc(-c2noc(-c3cccc(NC(=O)COc4ccccc4)c3)n2)cc1`, the Kd in assay [1] was 12.7 µM. `Cc1ccc(Nc2nc(C)cc(Nc3ccc(NC(=O)c4ccc5c(c4)OCO5)cc3)n2)cc1`: the Kd in assay [1] was found to be 17.3 µM.

For `CCOc1ccc(NC(=O)COc2cccc(-c3noc(-c4ccc(OC)cc4)n3)c2)cc1`, the Kd in assay [1] was determined as 1.28 µM. In the case of `O=C(COc1ccccc1)Nc1cccc(-c2nc(-c3ccccc3)no2)c1`, the Kd in assay [1] is 63.7 µM.

(Values after ChEMBL document CHEMBL5360650, “Discovery of Small-Molecule TIM-3 Inhibitors for Acute Myeloid Leukemia Using Pharmacophore-Based Virtual Screening” (J Med Chem, 2023).)
